From patent US10561681B2, “Antimetastatic 2H-selenopheno[3,2-h]chromenes, synthesis thereof, and methods of using same agents” (Latvian Institute of Organic Synthesis, priority 2016, dated 2020)
Where “and” joins values, the source holds several entries; their conditions need not be identical. Identical values can stand only once. Marks after values point to notes of the source that are not given here.

Key:
[1] = Basal cytotoxicity test, Neutral Red Uptake (NRU) assay; type: cell-based; details: for LD50 at 24 h: mouse, po, acute oral LD50 calculated from 3T3 NRU IC50 by regression formula, read-out: Basal cytotoxicity Estimated* LD50; for IC50 at 24 h: normal mouse embryo fibroblasts, read-out: Cytotoxicity IC50, 3T3
Outline: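 Balb/c 3T3 fibroblasts (9000 cells/well) exposed 24 h to compounds at 1–1000 μg/ml in DMEM with 5% FBS. Viability by Neutral Red uptake (3 h, 0.05 mg/mL), absorbance at 540 nm relative to untreated cells; IC50 from concentration–response.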

[2] = Acute p.o. toxicity, Up-and-Down Procedure (OECD 425); details: mouse, in vivo, po; p.o. single dose, 6 weeks old male ICR mice
Method: Acute p.o. toxicity (LD50) was estimated by the Up-and-Down Procedure according to the OECD Test Guideline 425 [OECD (2001) Guideline for testing of chemicals OECD 425, acute oral toxicity—Up-and-Down Procedure, Paris, p. 1-26]. Animals were observed daily for clinical signs or mortality over a period of two weeks following the treatment. Compounds were dissolved in DMSO and then in PBS (pH 7.4; DMSO final concentration <1%). The test substance was administered in a single dose p.o. to mice. […]
Acute toxicity in vivo has been determined for I-10 and I-11 on 6 weeks old male ICR mice.

[3] = test system: mouse sarcoma CCRF-S180 II (CCL-8); test: Mouse non-metastatic cancer model, sarcoma CCL-8 s.c. in ICR mice; type: in vivo; details: s.c. Day 1, 2, 3, 4, 7, 8, 9, 10, 11; dose 5 mg/kg, total dose 45 mg/kg
Method: Six-week-old female ICR and BALB/c mice were purchased from the University of Tartu Laboratory Animal Centre (Estonia). The mice were housed five to a cage, and under standard conditions (21-23° C., 12 h light: dark cycle), fed ad libitum (R3 diet, Lactamin AB, Kimstad, Sweden) and observed daily. The experimental procedures involving experimental animals were carried out in accordance with the guidelines of the European Community, local laws and policies, and were approved by the Latvian Animal Protection Ethical Committee, the Food and Veterinary Service, Riga, Latvia.
In vivo studies were performed utilizing the mouse sarcoma CCRF-S180 II (CCL-8) and Lewis lung carcinoma (LLC) cell line. All cell lines were purchased from ATCC. The cells were grown in Dulbecco's modified Eagle's medium (Sigma) supplemented with 10% fetal calf serum (Sigma).
ICR mice were subcutaneously inoculated in the back with 5×10^6 CCL-8 cells and BALB/c mice were inoculated with 1×10^6 LLC (Lewis Lung Carcinoma) cells, which were suspended in 0.1 mL of PBS on day zero of the study. The compounds dissolved in DMSO and then in 0.1 mL water (DMSO final concentration 1%) were injected s.c. Mice in the untreated group were similarly given doses of 0.1 mL of water with DMSO. Tumor volume (tumor volume V=[…], a is maximal and b the minimal tumor diameter) was recorded twice per week. The mice were examined every other day for diseases including appearance, weight and behavior. The mice were sacrificed at day 16 of the experiment by decapitation after ketamine/xylazine anesthesia.

4T1 carcinoma cells = test: 4T1 model of lung metastasis (tail vein) in Balb/c mice; type: in vivo, mouse; details: for % of the total area occupied by metastases, % (control = 100) / % of the total area occupied by metastases, Mean ± SD: 20 mg/kg, days 1, 4, 7, 9, 11, 14
Method: Compounds were administered s.c. at 1, 4, 7, 9, 11 and 14th days. 4T1 cells (10,000/0.1 ml PBS) were injected i.v. into syngeneic mice. The metastasis at day 16 are shown for each mouse, and averages are provided for illustration.
Balb/c mice were injected with 100,000 4T1 […] cancer cells into the tail vein and treatment started 24 hr later with subcutaneous (s.c.), intraperitoneal (i.p.) injections or oral administration (p.o.) of compounds according to the following scheme: 1, 4, 7, 9, 11 and 14th days in dose 20 or 40 mg/kg. Compounds were dissolved in DMSO and the solution were diluted by water (DMSO final concentration <1%). Mice in the control group were similarly given doses of 0.1 mL of water with DMSO. Twenty-one days later, all mice were anesthetized with ketamine/xylazine and euthanized, the mice were sacrificed spleens were excised from the mice and weighed. In each experiment, mice were weighed twice weekly.
(Lewis et al, Cancer Res, 2005, 65) Pulmonary metastases were enumerated by intra-tracheal injection of India ink (15% India Ink, 85% water, 3 drops NH4OH/100 ml). India ink injected lungs were washed in Feket's solution (300 ml 70% EtOH, 30 ml 37% formaldehyde, 5 ml glacial acetic acid) and then placed fresh Feket's solution overnight. […] White tumor nodules against a black lung background were measured.

| Compound | LD50 at 24 h [1] | IC50 at 24 h [1] [µM] | LD50 at 2 weeks [2] [mg/kg] | Anticancer activity in vivo (inhibition, %), CCL-8 tumor volume [3] | Effect on development of splenomegaly (4T1 carcinoma cells; 4T1 i.v.) | Spleen weight increase (4T1 carcinoma cells; 4T1 i.v., dose not stated, control with tumor +147%) [%] | % of the total area occupied by metastases, % (control = 100) (4T1 carcinoma cells; i.p.) [%] | % of the total area occupied by metastases, Mean ± SD (4T1 carcinoma cells; i.p.) [%] | % of the total area occupied by metastases, % (control = 100) (4T1 carcinoma cells; p.o.) | % of the total area occupied by metastases, Mean ± SD (4T1 carcinoma cells; p.o.) [%] | % of the total area occupied by metastases, % (control = 100) (4T1 carcinoma cells; s.c.) | % of the total area occupied by metastases, Mean ± SD (4T1 carcinoma cells; s.c., control 50 ± 33) [%] | Prevention of formation of 4T1 carcinoma lung metastasis (4T1 carcinoma cells; five mice per group) [%] |
| --- | --- | --- | --- | --- | --- | --- | --- | --- | --- | --- | --- | --- | --- |
| COC(=O)c1cc2ccc3c(Br)c(CN4CCN(C)CC4)[se]c3c2oc1=O [Compound I-10, Methyl 7-bromo-8-((4-methylpiperazin-1-yl)methyl)-2-oxo-2H-selenopheno[3,2-h]chromene-3-carboxylate] | 4300 µmol/kg and 2300 mg/kg | 86 ± 5 | 891 | 42** % | does not affect the development of splenomegaly | 63 | 86 | 43 ± 40 | 32** % | 16 ± 18 | 19* % | 10 ± 29 | – |
| O=C(O)c1cc2ccc3c(Br)c(C4(O)CCCCC4)[se]c3c2oc1=O [Compound I-11, 7-Bromo-8-(1-hydroxycyclohexyl)-2-oxo-2H-selenopheno[3,2-h]chromene-3-carboxylic acid] | > 5800 µmol/kg and > 2730 mg/kg | > 213 | > 2000 | 58* % | – | – | 62 | 31 ± 41 | 28** % | 14 ± 31 | 39** % | 20 ± 30 | 98 |
